Tests used:
B16F10 cells = experiment: Cell proliferation assay (alamarBlue), B16F10; assay type: cell-based; conditions: Mus musculus, B16-F10; B16F10 (melanoma, BRAF wild-type), 96 hours
Protocol: (§1) In accordance with the invention, the ability of the substances to inhibit cell proliferation was determined. Cell viability was determined by means of the alamarBlue® reagent (Invitrogen) in a Victor X3 Multilabel Reader (Perkin Elmer). The excitation wavelength was 530 nm and the emission wavelength […].
The B16F10 cells (ATCC, CRL-6475) were sown at a concentration of 300-500 cells/well in 100 μl of growth medium (DMEM with phenol red, 10% FCS) on 96-well microtitre plates.
(§2) After overnight incubation at 37° C., the fluorescence values were determined (CI values). Then the plates were treated with various substance dilutions (1E-5 M, 3E-6 M, 1E-6 M, 3E-7 M, 1E-7 M, 3E-8 M, 1E-8 M) and incubated at 37° C. over 96 hours (MOLM-13, B16F10, CHL-1 cells) or 120 hours (MOLP-8 cells). Subsequently, the fluorescence values were determined (CO values). For the data analysis, the CI values were subtracted from the CO values and the results were compared between cells which had been treated with various dilutions of the substance or only with buffer solution. The IC50 values (substance concentration needed for 50% inhibition of cell proliferation) were calculated therefrom.

[1] = biological target: T1, BRD4 bromo domain 2 [BRD4(2)] (Homo sapiens, UniProt O60885); experiment: BRD4/acetylated peptide H4 binding assay (TR-FRET), BRD4 bromo domain 2; conditions: inhibition of BRD4(2)/Ac-H4 peptide interaction
T1 construct: N-terminally His6-tagged BRD4(2) (amino acids 357-445); made in house; host or cells: E. coli
Summary of the method: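 IC50 comes from a 4-parameter fit over 0.1 nM–20 μM in duplicate, normalised to DMSO and no-protein controls. TR-FRET (Eu-streptavidin/anti-His-XL665) tracks His-tagged BRD4(2) 357-445 at 100 nM binding Ac-H4 peptide in HEPES pH 7.5 buffer. Incubation was 1 h at 22 °C, then at 4 °C ≥3 h up to overnight.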

MOLM-13 cells = experiment: Cell proliferation assay (alamarBlue), MOLM-13; assay type: cell-based; conditions: Homo sapiens; MOLM-13 (acute myeloid leukaemia), 96 hours
Protocol: as §1
The MOLM-13 cells (DSMZ, ACC 554) were sown at a concentration of 4000 cells/well in 100 μl of growth medium (RPMI1640, 10% FCS) on 96-well microtitre plates.
as §2

MOLP-8 cells = experiment: Cell proliferation assay (alamarBlue), MOLP-8; assay type: cell-based; conditions: Homo sapiens; MOLP-8 (multiple myeloma), 120 hours
Protocol: as §1
The MOLP-8 cells (DSMZ, ACC 569) were sown at a concentration of 4000 cells/well in 100 μl of growth medium (RPMI1640, 20% FCS) on 96-well microtitre plates.
as §2

| SMILES | IC50 (B16F10 cells) [nM] | IC50 [1] [nM] | IC50 (MOLM-13 cells) [nM] | IC50 (MOLP-8 cells) [nM] |
| --- | --- | --- | --- | --- |
| C[C@@H]1C(=O)N(C)c2ccc(Nc3cccc(C(=O)N[C@H]4CC[C@H](N5CCN(CC6CC6)CC5)CC4)c3)nc2N1C1CCOCC1 [Example 14, N-{trans-4-[4-(Cyclopropylmethyl)piperazin-1-yl]cyclohexyl}-3-{[(3R)-1,3-dimethyl-2-oxo-4-(tetrahydro-2H-pyran-4-yl)-1,2,3,4-tetrahydropyrido[2,3-b]pyrazin-6-yl]amino}benzamide] | 809 | 170 | 343 | 240 |
| CC(C)N1c2nc(Nc3cccc(S(=O)(=O)N4CCN(C)CC4)c3)ccc2N(C)C(=O)[C@H]1C [Example 43, (3R)-4-isopropyl-1,3-dimethyl-6-({3-[(4-methylpiperazin-1-yl)sulphonyl]phenyl}-amino)-3,4-dihydropyrido-[2,3-b]pyrazin-2(1H)-one] | 537 | 96 | 196 | 144 |
| CC(C)N1c2nc(Nc3cccc(S(=O)(=O)N[C@H]4CC[C@H](N5CCN(CC6CC6)CC5)CC4)c3)ccc2N(C)C(=O)[C@H]1C [Example 34, N-{trans-4-[4-(cyclopropylmethyl)piperazin-1-yl]cyclohexyl}-3-{[(3R)-4-isopropyl-1,3-dimethyl-2-oxo-1,2,3,4-tetrahydropyrido[2,3-b]pyrazin-6-yl]amino}-benzenesulphonamide] | 202 | 125 | 55 | 20 |
| C[C@@H]1C(=O)N(C)c2ccc(Nc3cccc(C(=O)NC4CCN(C)CC4)c3)nc2N1C1CCOCC1 [Example 13, 3-{[(3R)-1,3-Dimethyl-2-oxo-4-(tetrahydro-2H-pyran-4-yl)-1,2,3,4-tetrahydropyrido[2,3-b]pyrazin-6-yl]amino}-N-(1-methylpiperidin-4-yl)benzamide] | 840 | 218 | 697 | 306 |
| CC(C)N1c2nc(Nc3cccc(C(=O)N[C@H]4CC[C@H](N5CCN(CC6CC6)CC5)CC4)c3)ccc2N(C)C(=O)[C@H]1C [Example 79, N-{trans-4-[4-(cyclo-propylmethyl)piperazin-1-yl]cyclohexyl}-3-{[(3R)-4-isopropyl-1,3-dimethyl-2-oxo-1,2,3,4-tetrahydropyrido[2,3-b]pyrazin-6-yl]amino}benzamide] | 478 | 116 | 287 | 77 |
| C[C@@H]1C(=O)N(C)c2ccc(Nc3cccc(C(=O)NC4CCN(C)CC4)c3)nc2N1C1CCCC1 [Example 2, 3-{[(3R)-4-Cyclopentyl-1,3-dimethyl-2-oxo-1,2,3,4-tetrahydropyrido[2,3-b]pyrazin-6-yl]amino}-N-(1-methylpiperidin-4-yl)benzamide] | 442 | 89 | 352 | 114 |

The remaining compounds from weak to strong by IC50 (B16F10 cells), led by results:

| IC50 (B16F10 cells) [nM] | IC50 [1] [nM] | IC50 (MOLM-13 cells) [nM] | SMILES | IC50 (MOLP-8 cells) [nM] |
| --- | --- | --- | --- | --- |
| 1080 | 196 | 511 | C[C@@H]1C(=O)N(C)c2ccc(Nc3cccc(C(=O)N4CCN(C)CC4)c3)nc2N1C1CCOCC1 [Example 15, (3R)-1,3-Dimethyl-6-({3-[(4-methylpiperazin-1-yl)carbonyl]phenyl}amino)-4-(tetrahydro-2H-pyran-4-yl)-3,4-dihydropyrido[2,3-b]pyrazin-2(1H)-one] | 313 |
| 626 | 53 | 237 | C[C@@H]1C(=O)N(C)c2ccc(Nc3cccc(S(=O)(=O)NCCN(C)C)c3)nc2N1C1CCOCC1 [Example 21] | 175 |
| 78 | 54 | 66 | C[C@@H]1C(=O)N(C)c2ccc(Nc3cccc(S(=O)(=O)N4CCOCC4)c3)nc2N1C1CCOCC1 [Example 9, (3R)-1,3-Dimethyl-6-{[3-(morpholin-4-ylsulphonyl)phenyl]amino}-4-(tetrahydro-2H-pyran-4-yl)-3,4-dihydropyrido[2,3-b]pyrazin-2(1H)-one] | 40 |
